Values after ≈ are worked out from the molar mass of the structure shown. Like-named read-outs stand apart in the source and are kept apart here.
Tests used:
Pseudomonas aeruginosa = test: MIC by agar dilution, comparison in words; type: cell-based; settings: against Pseudomonas aeruginosa; vs Cefpirome
Experimental: (§1) These MIC values were determined by agar dilution method: that is, two-fold dilutions of each of the test compounds were made and dispersed in a Mueller-Hinton Broth medium. Standard test strain which had the 10^6 CFU per ml was inoculated on the medium, and was incubated at 37° C. for 18 to 20 hours.

[1] = test system: Pseudomonas aeruginosa 9071; test: MIC by agar dilution, in vitro activity test; type: cell-based; settings: 37° C., 18 to 20 hours, read-out: Minimal Inhibitory Concentration (MIC)
Experimental: as §1

Salmonella typhimurium = test: MIC by agar dilution, in vitro activity test; type: cell-based; settings: Salmonella enterica, 37° C., 18 to 20 hours, read-out: Minimal Inhibitory Concentration (MIC)
Experimental: as §1

[2] = test system: Pseudomonas aeruginosa 1771M; test: MIC by agar dilution, in vitro activity test; type: cell-based; settings: 20 h, read-out: Minimal Inhibitory Concentration (MIC)
Experimental: as §1

[3] = test system: Staphylococcus aureus SG511; test: MIC by agar dilution, in vitro activity test; type: cell-based; settings: 37° C., 18 to 20 hours, read-out: Minimal Inhibitory Concentration (MIC)
Experimental: as §1

[4] = test system: Streptococcus pyogenes 71A; test: MIC by agar dilution, in vitro activity test; type: cell-based; settings: 37° C., 18 to 20 hours, read-out: Minimal Inhibitory Concentration (MIC)
Experimental: as §1

[5] = test system: Staphylococcus aureus 285; test: MIC by agar dilution, in vitro activity test; type: cell-based; settings: 37° C., 18 to 20 hours, read-out: Minimal Inhibitory Concentration (MIC)
Experimental: as §1

[6] = test system: Enterobacter cloace 1321E; test: MIC by agar dilution, in vitro activity test; type: cell-based; settings: 37° C., 18 to 20 hours, read-out: Minimal Inhibitory Concentration (MIC)
Experimental: as §1

[7] = test system: Streptococcus faecium MD 8b; test: MIC by agar dilution, in vitro activity test; type: cell-based; settings: Enterococcus faecium, MD8B, 20 h, read-out: Minimal Inhibitory Concentration (MIC)
Experimental: as §1

Escherichia coli TEM = test: MIC by agar dilution, in vitro activity test; type: cell-based; settings: 20 h, read-out: Minimal Inhibitory Concentration (MIC)
Experimental: as §1

Escherichia coli 078 = test: MIC by agar dilution, in vitro activity test; type: cell-based; settings: 37° C., 18 to 20 hours, read-out: Minimal Inhibitory Concentration (MIC)
Experimental: as §1

Escherichia coli DC 0 = test: MIC by agar dilution, in vitro activity test; type: cell-based; settings: DC0, 37° C., 18 to 20 hours, read-out: Minimal Inhibitory Concentration (MIC)
Experimental: as §1

[8] = test system: Klebsiella aerogenes 1082E; test: MIC by agar dilution, in vitro activity test; type: cell-based; settings: 37° C., 18 to 20 hours, read-out: Minimal Inhibitory Concentration (MIC)
Experimental: as §1

[9] = test system: Klebsiella aerogenes 1522E; test: MIC by agar dilution, in vitro activity test; type: cell-based; settings: Klebsiella aerogenes 1522E; agar dilution, 37° C., 18 to 20 hours; read-out: Minimal Inhibitory Concentration (MIC)
Experimental: as §1

Escherichia coli 1507E = test: MIC by agar dilution, in vitro activity test; type: cell-based; settings: Escherichia coli 1507E; agar dilution, 37° C., 18 to 20 hours; read-out: Minimal Inhibitory Concentration (MIC)
Experimental: as §1

[10] = test system: Pseudomonas aeruginosa 1592E; test: MIC by agar dilution, in vitro activity test; type: cell-based; settings: 37° C., 18 to 20 hours, read-out: Minimal Inhibitory Concentration (MIC)
Experimental: as §1

[11] = test system: Staphylococcus aureus 503; test: MIC by agar dilution, in vitro activity test; type: cell-based; settings: 37° C., 18 to 20 hours, read-out: Minimal Inhibitory Concentration (MIC)
Experimental: as §1

Enterobacter cloace P99 = test: MIC by agar dilution, in vitro activity test; type: cell-based; settings: P99, 20 h, read-out: Minimal Inhibitory Concentration (MIC)
Experimental: as §1

Escherichia coli DC 2 = test: MIC by agar dilution, in vitro activity test; type: cell-based; settings: DC2, 37° C., 18 to 20 hours, read-out: Minimal Inhibitory Concentration (MIC)
Experimental: as §1

Acute toxicity study = type: in vivo; settings: in vivo
Experimental: (§2) In order to illustrate usefulness of the compounds of the present invention, acute toxicity test of the compounds synthesized in the above Examples were carried out. Each dose of the compounds dissolved in saline and buffer solution (PH=7.0) was administered by intravenous or subcutaneous injection. Mortalities of the animals was recorded seven days latter.
(§3) .asterisk-pseud. Mouse: Male ICR strain, 4 weeks

[12] = test system: Pseudomonas aeruginosa 1771; test: MIC by agar dilution, in vitro activity test; type: cell-based; settings: 37° C., 18 to 20 hours, read-out: Minimal Inhibitory Concentration (MIC)
Experimental: These MIC values were determined by agar dilution method: that is, two-fold dilutions of each of the test compounds were made and dispersed in a Mueller-Hinton Broth medium.

Mouse = test: Acute toxicity study; type: in vivo; settings: 10080 min
Experimental: as §2, §3

[13] = test system: Staphylococcus aureus, Escherichia coli and Pseudomonas aeruginosa; test: MIC by agar dilution, comparison in words; type: cell-based; settings: against Staphylococcus aureus, vs Cefotaxime
Experimental: as §1

[14] = test system: Pseudomonas aeruginosa 9027; test: MIC by agar dilution, in vitro activity test; type: cell-based; settings: 37° C., 18 to 20 hours, read-out: Minimal Inhibitory Concentration (MIC)
Experimental: as §1

[15] = test system: Streptococcus pyogenes 77A; test: MIC by agar dilution, in vitro activity test; type: cell-based; settings: 37° C., 18 to 20 hours, read-out: Minimal Inhibitory Concentration (MIC)
Experimental: as §1

[16] = iv, i.v, male ICR mouse, 4 weeks, mortality at seven days, read-out: LD50 i.v
[17] = sc, s.c, male ICR mouse, 4 weeks, mortality at seven days, read-out: LD50 s.c

Structure (SMILES)	MIC [1]	MIC (Salmonella typhimurium)	MIC [2]	MIC [3]	MIC [4]	MIC [5]	MIC [6]	MIC [7]	MIC (Escherichia coli TEM)	MIC (Escherichia coli 078)	MIC (Escherichia coli DC 0)	MIC [8]	MIC [9]	MIC (Escherichia coli 1507E)	MIC [10]	MIC [11]	MIC (Enterobacter cloace P99)	MIC (Escherichia coli DC 2)	MIC [12]	LD50 at 168 h (Acute toxicity study; [16])	also measured
CC[N+](C)(CC=CC(N)=O)C/C=C/C1=C(C(=O)[O-])N2C(=O)[C@@H](NC(=O)/C(=N\OC)c3nsc(N)n3)[C@H]2SC1 (stereo partly drawn) [Example 13, 7β-[(Z)-2-(5-amino-1,2,4-thiadiazol-3-yl)-2-methoxyiminoacetamido]-3-[(E)-3-[(1-carbamoyl-1-propen-3-yl)-3-ethylmethylammonio]-1-propen-1-yl]3-cephem-4-carboxylate]	3.1 µg/mL (≈ 5.49 µM)	0.2 µg/mL (≈ 0.354 µM)	0.4 µg/mL (≈ 0.708 µM)	0.8 µg/mL (≈ 1.42 µM)	0.025 µg/mL (≈ 0.0443 µM)	0.8 µg/mL (≈ 1.42 µM)	0.05 µg/mL (≈ 0.0886 µM)	> 100 µg/mL	0.05 µg/mL (≈ 0.0886 µM)	0.05 µg/mL (≈ 0.0886 µM)	0.025 µg/mL (≈ 0.0443 µM)	3.1 µg/mL (≈ 5.49 µM)	0.2 µg/mL (≈ 0.354 µM)	0.1 µg/mL (≈ 0.177 µM)	1.6 µg/mL (≈ 2.83 µM)	0.8 µg/mL (≈ 1.42 µM)	1.6 µg/mL (≈ 2.83 µM)	0.2 µg/mL (≈ 0.354 µM)	1.6 µg/mL (≈ 2.83 µM)	–	MICs compared with Cefpirome (Pseudomonas aeruginosa): superior to that of Cefpirome; LD50 at 168 h (Acute toxicity study; mouse, iv, i.v, male ICR mouse, 4 weeks, mortality at seven days, read-out: LD50 i.v): > 2000 mg/kg; LD50 at 168 h (Acute toxicity study; mouse, iv, intravenous routes, read-out: acute toxicity in intravenous routes): > 2000 mg/kg; LD50 at 168 h (Acute toxicity study; mouse, sc, s.c, male ICR mouse, 4 weeks, mortality at seven days, read-out: LD50 s.c): > 3000 mg/kg
CC[N+](C)(CC=CC(N)=O)C/C=C/C1=C(C(=O)[O-])N2C(=O)[C@@H](NC(=O)/C(=N\OCCF)c3nsc(N)n3)[C@H]2SC1 (stereo partly drawn) [Example 15, 7β-[(Z)-2-(5-amino-1,2,4-thiadiazol-3-yl)-2-fluoroethoxyiminoacetamido]-3-[(E)-3-[(1-carbamoyl-1-propen-3-yl)-3-ethylmethylammonio]-1-propen-1-yl]3-cephem-4-carboxylate]	3.1 µg/mL (≈ 5.2 µM)	0.2 µg/mL (≈ 0.335 µM)	0.8 µg/mL (≈ 1.34 µM)	0.8 µg/mL (≈ 1.34 µM)	0.025 µg/mL (≈ 0.0419 µM)	0.8 µg/mL (≈ 1.34 µM)	0.05 µg/mL (≈ 0.0838 µM)	> 100 µg/mL	0.05 µg/mL (≈ 0.0838 µM)	0.025 µg/mL (≈ 0.0419 µM)	0.012 µg/mL (≈ 0.0201 µM)	3.1 µg/mL (≈ 5.2 µM)	0.05 µg/mL (≈ 0.0838 µM)	0.1 µg/mL (≈ 0.168 µM)	3.1 µg/mL (≈ 5.2 µM)	0.8 µg/mL (≈ 1.34 µM)	0.8 µg/mL (≈ 1.34 µM)	0.1 µg/mL (≈ 0.168 µM)	3.1 µg/mL (≈ 5.2 µM)	> 2000 mg/kg	LD50 at 168 h (Acute toxicity study; [17]): > 3000 mg/kg; acute toxicity in intravenous routes (Mouse): > 2000 mg/kg; acute toxicity in subcutaneous routes (Mouse): > 3000 mg/kg
CC[N+](C)(CC=CC(N)=O)C/C=C/C1=C(C(=O)[O-])N2C(=O)[C@@H](NC(=O)/C(=N\OCCF)c3csc(N)n3)[C@H]2SC1 (stereo partly drawn) [Example 12, 7β-[(Z)-2-(2-aminothiazol-4-yl)-2-fluoroethoxyiminoacetamdo]-3-[(E)-3-[(1-carbamoyl-1-propen-3-yl)-3-ethylmethylammonio]-1-propen-1-yl]3-cephem-4-carboxylate]	–	0.4 µg/mL (≈ 0.672 µM)	0.8 µg/mL (≈ 1.34 µM)	0.8 µg/mL (≈ 1.34 µM)	–	0.8 µg/mL (≈ 1.34 µM)	0.05 µg/mL (≈ 0.0839 µM)	> 100 µg/mL	0.05 µg/mL (≈ 0.0839 µM)	0.025 µg/mL (≈ 0.042 µM)	< 0.006 µg/mL	3.1 µg/mL (≈ 5.2 µM)	0.1 µg/mL (≈ 0.168 µM)	0.05 µg/mL (≈ 0.0839 µM)	6.3 µg/mL (≈ 10.6 µM)	0.8 µg/mL (≈ 1.34 µM)	1.6 µg/mL (≈ 2.69 µM)	0.05 µg/mL (≈ 0.0839 µM)	6.3 µg/mL (≈ 10.6 µM)	> 2000 mg/kg	MICs compared with Cefotaxime [13]: superior to that of Cefotaxime; MIC [14]: 12.5 µg/mL (≈ 21 µM); MIC [15]: 0.025 µg/mL (≈ 0.042 µM); LD50 at 168 h (Acute toxicity study; [17]): > 3000 mg/kg; acute toxicity in intravenous routes (Mouse): > 2000 mg/kg; acute toxicity in subcutaneous routes (Mouse): > 3000 mg/kg
